Consider two substances from US12109251B2, “Satiation peptide administration” (University of Florida Research Foundation, Incorporated, priority 2009, dated 2024).

One test deals with male Balb/c mice. The experiment in a line: Territorial Resident/Intruder aggression test. It counts as in vivo. Here is the method: Data presented in this report indicate that long-term expression of Peptide YY3-36, an agonist of NPY Y receptors with higher affinity for the Y2 receptor, abolish aggressive behavior in mice. To test these observations, we used the territorial Resident/Intruder (R/I) aggressive paradigm (6), a standard test for evaluating rodent aggressive behavior. The test was applied on three different occasions using different intruders. Tests were recorded and analyzed in a blind manner using the Observer v5.0 software (Noldus Information Technology) (see videos, Supplementary data) (7).
Behavioral studies: Aggression territorial-Intruder test were performed on week 24 after the treatment (6). Briefly, PYY-, or GFP-treated resident mice were individually housed for at least two weeks prior to testing. Bedding from cages was not changed during the testing period to avoid unnecessary stress. On the day of the experiment, a smaller size intruder was placed into the resident cage for 10 minutes and the resident's behavior was recorded with a video camera. Each experiment was repeated 3 times on three different occasions and with different intruders. The videos from the experiments were analyzed for non-aggressive and aggressive behavior by an expert in a blind manner using The Observer v5.0 software (Noldus Information Technology) (7).
Data was reported in mean±SEM.

In another test the test system is mice. Kind of test: PYY mouth spray, food intake after 24 hours fasting. It is filed as in vivo. Here is the method: Synthetic PYY was purchased from Bachem, Inc USA (Cat #H-6042) and diluted in sterile H2O. Sterile un-used perfume sample vials (Saphora) were utilized to administer PYY in the form of a mouth spray. It was estimated that the volume of one spray approximates to about […].
Mice were conditioned three times to 24 hours fasting starting at the beginning of the dark cycle and ending at the end of the light cycle. At the end of the fasting cycle and as a part of conditioned routine, a sterile water spray had been administered into the mouth. All the experiments were done during the first hour of the dark cycle after fasting. Once the dark cycle started, mice were sprayed once with either PYY or sterile H2O in a total volume of […] per spray. After the treatment, mice were returned to their cages and ten minutes later pre-weighted chow was provided. One hour later, the amount of consumed chow had been recorded by measuring the leftover amount. When the experiments were repeated, mice were fasted only once a week with the control and experimental groups rotated.

Regarding “PYY3-36: endogenous NPY Y2 receptor agonist; salivary level raised long-term by rAAV-PYY in the treated mice”, in the test on male Balb/c mice (vs control mice), the chase duration entry was “decrease” and the chase events result is reported as “decrease”. For the same substance, in the test with male Balb/c mice (vs controls), the attack duration result was “significant decrease”, the attack latency result was “significant increase”, the “normal social interactions manifested by sniffing” value is on record as “did not change” and the threat duration entry was “significant decrease”. Besides, in the test with male Balb/c mice (vs controls), the threat events result was “significant decrease”. For the same substance, the attack events with male Balb/c mice (week 24 after treatment, n=5, mean±SEM) came out at 0.07±0.067 events per 10 min. For the same substance, in the test on male Balb/c mice (week 24 after treatment, n=5, p<0.05), the “decrease in the number of attack events compared to controls” value was 44 fold.
For the substance “PYY: Synthetic PYY purchased from Bachem (Cat #H-6042), diluted in sterile H2O, given as a mouth spray [Peptide YY]”, in the test on mice (mouth spray), the “dose response of PYY mouth spray on FI after one hour” value is on record as “significant PYY dose response effect”. Further, the “less food consumed in one hour compared to H2O spray control” value in the test on mice (one mouth spray, 5 ug per 100 g of body weight, after 24 h fasting, average, P=0.03) stood at 15%.
